Biological target: T1, PI3K gamma (Homo sapiens, UniProt P48736)
T1 construct: His tag (C); made in house; host or cells: baculovirus (pVL1393); Tn5 or TiniPro insect cells; construct from Roger Williams lab, MRC LMB
Test: PI3K gamma kinase assay (Kinase-Glo luminescence)
Format: biochemical
Details: not given
Procedure, shortened: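 PI3Kγ (150 nM) reaction run 120 min at room temperature with phosphatidylinositol substrate (10 μg/mL) and ATP (1 μM) in Tris pH 7.5 buffer containing MgCl2, NaCl, CHAPS and DTT. Remaining ATP detected by Kinase-Glo luminescence; 8 concentrations per compound, IC50 from 4-parameter curve fitting.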

T1 sequence (P48736 144-1102 limits assumed): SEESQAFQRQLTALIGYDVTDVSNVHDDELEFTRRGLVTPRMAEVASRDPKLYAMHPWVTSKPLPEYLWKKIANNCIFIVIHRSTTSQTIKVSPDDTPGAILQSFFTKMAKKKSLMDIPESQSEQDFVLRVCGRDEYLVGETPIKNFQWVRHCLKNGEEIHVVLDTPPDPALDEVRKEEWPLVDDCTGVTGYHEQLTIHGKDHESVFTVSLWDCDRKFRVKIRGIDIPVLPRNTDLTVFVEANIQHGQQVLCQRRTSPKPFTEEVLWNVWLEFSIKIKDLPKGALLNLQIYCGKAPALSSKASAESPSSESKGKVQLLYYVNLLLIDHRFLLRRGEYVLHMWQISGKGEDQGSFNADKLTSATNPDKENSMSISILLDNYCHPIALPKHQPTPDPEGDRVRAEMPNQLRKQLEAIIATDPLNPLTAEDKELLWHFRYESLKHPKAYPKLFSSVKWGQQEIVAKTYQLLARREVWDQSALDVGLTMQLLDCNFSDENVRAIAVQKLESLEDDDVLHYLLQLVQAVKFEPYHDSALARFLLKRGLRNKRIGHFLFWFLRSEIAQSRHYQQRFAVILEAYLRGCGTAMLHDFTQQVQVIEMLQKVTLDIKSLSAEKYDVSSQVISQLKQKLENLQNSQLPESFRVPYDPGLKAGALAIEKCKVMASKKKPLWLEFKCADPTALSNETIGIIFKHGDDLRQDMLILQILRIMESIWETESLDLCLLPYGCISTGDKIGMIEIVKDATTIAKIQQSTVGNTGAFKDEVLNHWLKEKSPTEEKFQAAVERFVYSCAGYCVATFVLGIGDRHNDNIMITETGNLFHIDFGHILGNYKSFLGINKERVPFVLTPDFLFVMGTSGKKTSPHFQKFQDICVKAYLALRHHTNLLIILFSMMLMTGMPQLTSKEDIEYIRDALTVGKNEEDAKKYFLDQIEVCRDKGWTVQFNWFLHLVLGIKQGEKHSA

| IC50 | SMILES |
| --- | --- |
| 150 nM | CN(C)c1ccc(-c2ccc3ncc4c(c3c2)n(-c2cn(C)nc2Cl)c(=O)n4C)cn1 [Example 4.9, 1-(3-Chloro-1-methyl-1H-pyrazol-4-yl)-8-(6-dimethylamino-pyridin-3-yl)-3-methyl-1,3-dihydro-imidazo[4,5-c]quinolin-2-one] |
| 75 nM | CNS(=O)(=O)c1cccc(-c2ccc3ncc4c(c3c2)n(-c2cn(C)nc2C)c(=O)n4C)c1 [Example 39, 3-[1-(1,3-Dimethyl-1H-pyrazol-4-yl)-3-methyl-2-oxo-2,3-dihydro-1H-imidazo[4,5-c]quinolin-8-yl]-N-methyl-benzenesulfonamide] |
| 701 nM | Cc1nn(C)cc1-n1c(=O)n(C)c2cnc3ccc(-c4cccc(NS(C)(=O)=O)c4)cc3c21 [Example 47, N-{3-[1-(1,3-dimethyl-1H-pyrazol-4-yl)-3-methyl-2-oxo-2,3-dihydro-1H-imidazo[4,5-c]quinolin-8-yl]-phenyl}-methanesulfonamide] |

System: S6 Ribosomal Protein phosphorylation Ser235/236 in TSC1 null mouse embryo fibroblast (MEF) cells
Test: Reverse protein array assay, S6 Ribosomal Protein phosphorylation Ser235/236 in TSC1 null MEF cells
Format: cell-based
Details: 1 h, pS6 ribosomal protein Ser235/236, 60 minutes incubation, read-out: p-S6 IC50
Procedure, shortened: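 TSC1−/− MEFs, seeded and held ≥20 h at 37 °C/5% CO2, were exposed to 8-step serial compound dilutions (0.02% DMSO final; DMSO vehicle control) for 60 min at 37 °C. Cells were then lysed on ice for 10 min and lysates spotted onto reverse protein array chips.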

| SMILES | IC50 |
| --- | --- |
| CN(C)c1ccc(-c2ccc3ncc4c(c3c2)n(-c2cn(C)nc2Cl)c(=O)n4C)cn1 [Example 4.9, 1-(3-Chloro-1-methyl-1H-pyrazol-4-yl)-8-(6-dimethylamino-pyridin-3-yl)-3-methyl-1,3-dihydro-imidazo[4,5-c]quinolin-2-one] | 2 nM |
| CN(C)c1ncc(-c2ccc3ncc4c(c3c2)n(-c2cn(C)nc2Cl)c(=O)n4C)cn1 [Example 6.3, 1-(3-Chloro-1-methyl-1H-pyrazol-4-yl)-8-(2-dimethylamino-pyrimidin-5-yl)-3-methyl-1,3-dihydro-imidazo[4,5-c]quinolin-2-one] | 8 nM |
| Cc1nn(C)cc1-n1c(=O)n(C)c2cnc3ccc(-c4cnc(N)c(C(F)(F)F)c4)cc3c21 [Example 25.1, 8-(6-Amino-5-trifluoromethyl-pyridin-3-yl)-1-(1,3-dimethyl-1H-pyrazol-4-yl)-3-methyl-1,3-dihydro-imidazo[4,5-c]quinolin-2-one] | 1 nM |
| Cc1cc(-n2c(=O)n(C)c3cnc4ccc(-c5cnc(N)c(C(F)(F)F)c5)cc4c32)n(C)n1 [Example 25.6, 8-(6-Amino-5-trifluoromethyl-pyridin-3-yl)-1-(2,5-dimethyl-2H-pyrazol-3-yl)-3-methyl-1,3-dihydro-imidazo[4,5-c]quinolin-2-one] | 1 nM |
| CNS(=O)(=O)c1cccc(-c2ccc3ncc4c(c3c2)n(-c2cn(C)nc2C)c(=O)n4C)c1 [Example 39, 3-[1-(1,3-Dimethyl-1H-pyrazol-4-yl)-3-methyl-2-oxo-2,3-dihydro-1H-imidazo[4,5-c]quinolin-8-yl]-N-methyl-benzenesulfonamide] | 37 nM |
| Cc1nn(C)cc1-n1c(=O)n(C)c2cnc3ccc(-c4cccc(NS(C)(=O)=O)c4)cc3c21 [Example 47, N-{3-[1-(1,3-dimethyl-1H-pyrazol-4-yl)-3-methyl-2-oxo-2,3-dihydro-1H-imidazo[4,5-c]quinolin-8-yl]-phenyl}-methanesulfonamide] | 127 nM |
| CC(C)Oc1cncc(-c2ccc3ncc4c(c3c2)n(-c2cn(C)nc2Cl)c(=O)n4C)c1 [Example 58.2, 1-(3-Chloro-1-methyl-1H-pyrazol-4-yl)-8-(5-isopropoxy-pyridin-3-yl)-3-methyl-1,3-dihydro-imidazo[4,5-c]quinolin-2-one] | 4 nM |
| Cc1nn(C)cc1-n1c(=O)n(C)c2cnc3ccc(-c4cncc(OC5CCC5)c4)cc3c21 [Example 60.1, 8-(5-Cyclobutoxy-pyridin-3-yl)-1-(1,3-dimethyl-1H-pyrazol-4-yl)-3-methyl-1,3-dihydro-imidazo[4,5-c]quinolin-2-one] | 1 nM |
| Cc1nn(C)cc1-n1c(=O)n(C)c2cnc3ccc(-c4cccc(OC(C)C)c4)cc3c21 [Example 82, 1-(1,3-Dimethyl-1H-pyrazol-4-yl)-8-(3-isopropoxy-phenyl)-3-methyl-1,3-dihydro-imidazo[4,5-c]quinolin-2-one] | 17 nM |
| CCN(CC)c1cncc(-c2ccc3ncc4c(c3c2)n(-c2cn(C)nc2C)c(=O)n4C)c1 [Example 95, 8-(5-Diethylamino-pyridin-3-yl)-1-(1,3-dimethyl-1H-pyrazol-4-yl)-3-methyl-1,3-dihydro-imidazo[4,5-c]quinolin-2-one] | 1 nM |
| Cc1nn(C)cc1-n1c(=O)n(C)c2cnc3ccc(-c4ccc(N5CCCC5)nc4)cc3c21 [Example 97, 1-(1,3-Dimethyl-1H-pyrazol-4-yl)-3-methyl-8-(6-pyrrolidin-1-yl-pyridin-3-yl)-1,3-dihydro-imidazo[4,5-c]quinolin-2-one] | 3 nM |
| CNc1ncc(-c2ccc3ncc4c(c3c2)n(-c2cn(C)nc2Cl)c(=O)n4C)cc1C [Example 119, 1-(3-Chloro-1-methyl-1H-pyrazol-4-yl)-3-methyl-8-(5-methyl-6-methylamino-pyridin-3-yl)-1,3-dihydro-imidazo[4,5-c]quinolin-2-one] | 1 nM |
| CNc1ncc(-c2ccc3ncc4c(c3c2)n(-c2cn(C(C)C)nc2C)c(=O)n4C)cc1C(F)(F)F [Example 144.2, 1-(1-Isopropyl-3-methyl-1H-pyrazol-4-yl)-3-methyl-8-(6-methylamino-5-trifluoromethyl-pyridin-3-yl)-1,3-dihydro-imidazo[4,5-c]quinolin-2-one] | 1 nM |
| CCNc1ncc(-c2ccc3ncc4c(c3c2)n(-c2cn(C)nc2C)c(=O)n4C)cc1C(F)(F)F [Example 145.2, 1-(1,3-Dimethyl-1H-pyrazol-4-yl)-8-(6-ethylamino-5-trifluoromethyl-pyridin-3-yl)-3-methyl-1,3-dihydro-imidazo[4,5-c]quinolin-2-one] | 0.94 nM |
| CCn1cc(-n2c(=O)n(C)c3cnc4ccc(-c5cnc(N)c(Cl)c5)cc4c32)c(C)n1 [Example 148.3, 8-(6-Amino-5-chloro-pyridin-3-yl)-1-(1-ethyl-3-methyl-1H-pyrazol-4-yl)-3-methyl-1,3-dihydro-imidazo[4,5-c]quinolin-2-one] | 1 nM |
| Cc1cc(-n2c(=O)n(C)c3cnc4ccc(-c5cnc(F)c(N)c5)cc4c32)n(C)n1 [Example 149.3, 8-(5-Amino-6-fluoro-pyridin-3-yl)-1-(2,5-dimethyl-2H-pyrazol-3-yl)-3-methyl-1,3-dihydro-imidazo[4,5-c]quinolin-2-one] | 6.94 nM |
| Cc1nn(C(C)C)cc1-n1c(=O)n(C)c2cnc3ccc(-c4cnc(Cl)c(N)c4)cc3c21 [Example 152.1, 8-(5-Amino-6-chloro-pyridin-3-yl)-1-(1-isopropyl-3-methyl-1H-pyrazol-4-yl)-3-methyl-1,3-dihydro-imidazo[4,5-c]quinolin-2-one] | 2 nM |
| Cc1nn(C)c(C)c1-n1c(=O)n(C)c2cnc3ccc(-c4cnc(Cl)c(N)c4)cc3c21 [Example 152.3, 8-(5-Amino-6-chloro-pyridin-3-yl)-3-methyl-1-(1,3,5-trimethyl-1H-pyrazol-4-yl)-1,3-dihydro-imidazo[4,5-c]quinolin-2-one] | 20 nM |
| CCOCc1cc(-c2ccc3ncc4c(c3c2)n(-c2cn(C(C)C)nc2C)c(=O)n4C)cnc1N [Example 166.3, 8-(6-Amino-5-ethoxymethyl-pyridin-3-yl)-1-(1-isopropyl-3-methyl-1H-pyrazol-4-yl)-3-methyl-1,3-dihydro-imidazo[4,5-c]quinolin-2-one] | 5 nM |
| CCOCc1cc(-c2ccc3ncc4c(c3c2)n(-c2cn(C)nc2Cl)c(=O)n4C)cnc1N [Example 166.4, 8-(6-Amino-5-ethoxymethyl-pyridin-3-yl)-1-(3-chloro-1-methyl-1H-pyrazol-4-yl)-3-methyl-1,3-dihydro-imidazo[4,5-c]quinolin-2-one] | 1 nM |
| Cc1nn(C(C)C)cc1-n1c(=O)n(C)c2cnc3ccc(-c4cnc5c(c4)COC(=O)N5C)cc3c21 [Example 170, 1-(1-Isopropyl-3-methyl-1H-pyrazol-4-yl)-3-methyl-8-(1-methyl-2-oxo-1,4-dihydro-2H-pyrido[2,3-d][1,3]oxazin-6-yl)-1,3-dihydro-imidazo[4,5-c]quinolin-2-one] | 79 nM |
| Cc1nn(C)cc1-n1c(=O)n(C)c2cnc3ccc(-c4cncc(N(C)C5CCC5)c4)cc3c21 [Example 174, 8-[5-(Cyclobutyl-methyl-amino)-pyridin-3-yl]-1-(1,3-dimethyl-1H-pyrazol-4-yl)-3-methyl-1,3-dihydro-imidazo[4,5-c]quinolin-2-one] | 3 nM |
| Cc1cc(-n2c(=O)n(C)c3cnc4ccc(-c5cnc(C)c(O)c5)cc4c32)n(C)n1 [Example 185.2, 1-(2,5-Dimethyl-2H-pyrazol-3-yl)-8-(5-hydroxy-6-methyl-pyridin-3-yl)-3-methyl-1,3-dihydro-imidazo[4,5-c]quinolin-2-one] | 32 nM |
| [2H]C([2H])([2H])OCc1ncc(-c2ccc3ncc4c(c3c2)n(-c2cn(C)nc2C)c(=O)n4C)cc1OCC [Example 198, 1-(1,3-Dimethyl-1H-pyrazol-4-yl)-8-(5-ethoxy-6-trideuteromethoxymethyl-pyridin-3-yl)-3-methyl-1,3-dihydro-imidazo[4,5-c]quinolin-2-one] | 3 nM |
| CCn1cc(-n2c(=O)n(C)c3cnc4ccc(-c5cncc(C(C)(C)C#N)c5)cc4c32)c(C)n1 [Example 220.2, 2-{5-[1-(1-Ethyl-3-methyl-1H-pyrazol-4-yl)-3-methyl-2-oxo-2,3-dihydro-1H-imidazo[4,5-c]quinolin-8-yl]-pyridin-3-yl}-2-methyl-propionitrile] | 3 nM |
| CCNC(=O)c1cc(-c2ccc3ncc4c(c3c2)n(-c2cn(C(C)C)nc2C)c(=O)n4C)cnc1N [Example 227, 2-Amino-N-ethyl-5-[1-(1-isopropyl-3-methyl-1H-pyrazol-4-yl)-3-methyl-2-oxo-2,3-dihydro-1H-imidazo[4,5-c]quinolin-8-yl]-nicotinamide] | 12 nM |
| COc1ncc(-c2ccc3ncc4c(c3c2)n(-c2cc(C)nn2C)c(=O)n4C)c(OC)n1 [Example 234.4, 8-(2,4-Dimethoxy-pyrimidin-5-yl)-1-(2,5-dimethyl-2H-pyrazol-3-yl)-3-methyl-1,3-dihydro-imidazo[4,5-c]quinolin-2-one] | 10.1 nM |
| CNc1ccc(-c2ccc3ncc4c(c3c2)n(-c2cn(C(C)C)nc2C)c(=S)n4C)cn1 [Example 241, 1-(1-isopropyl-3-methyl-1H-pyrazol-4-yl)-3-methyl-8-(6-(methylamino)pyridin-3-yl)-1H-imidazo[4,5-c]quinoline-2(3H)-thione] | < 0.5 nM |
